Measurements published in PMC2988090 (Nature, 2010).
Entries after “also recorded” stand apart in the source; their conditions may differ.

These compounds were tested against T1, dialyzed COI1-ASK1 in the presence of JAZ1 (Arabidopsis thaliana, UniProt O04197+Q9LMA8) (assay: inositol phosphate reconstitution assay). Settings: dialyzed COI1, 100 nM ^3H-coronatine, 1 µM inositol phosphate.
T1 sequence (O04197 1-592): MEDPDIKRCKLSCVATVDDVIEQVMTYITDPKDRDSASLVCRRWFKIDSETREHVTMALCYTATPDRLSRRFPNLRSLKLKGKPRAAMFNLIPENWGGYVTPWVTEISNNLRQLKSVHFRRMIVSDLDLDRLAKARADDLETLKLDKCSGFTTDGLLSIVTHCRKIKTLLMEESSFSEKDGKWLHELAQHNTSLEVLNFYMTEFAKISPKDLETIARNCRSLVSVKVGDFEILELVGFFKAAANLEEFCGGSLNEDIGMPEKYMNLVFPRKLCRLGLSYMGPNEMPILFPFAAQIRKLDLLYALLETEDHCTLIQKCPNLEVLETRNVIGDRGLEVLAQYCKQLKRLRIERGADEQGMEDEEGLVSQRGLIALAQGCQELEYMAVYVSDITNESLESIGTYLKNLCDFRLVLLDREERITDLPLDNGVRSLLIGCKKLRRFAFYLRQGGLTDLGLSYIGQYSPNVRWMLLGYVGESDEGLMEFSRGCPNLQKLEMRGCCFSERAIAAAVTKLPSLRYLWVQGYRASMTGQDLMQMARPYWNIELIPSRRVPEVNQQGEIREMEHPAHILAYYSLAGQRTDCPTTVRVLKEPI
T1 sequence (Q39255 1-160 partner): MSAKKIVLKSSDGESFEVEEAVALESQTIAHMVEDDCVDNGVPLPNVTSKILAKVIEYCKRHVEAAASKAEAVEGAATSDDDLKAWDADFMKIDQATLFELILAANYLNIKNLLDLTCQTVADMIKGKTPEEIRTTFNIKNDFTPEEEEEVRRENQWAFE
T1 sequence (Q9LMA8 1-253): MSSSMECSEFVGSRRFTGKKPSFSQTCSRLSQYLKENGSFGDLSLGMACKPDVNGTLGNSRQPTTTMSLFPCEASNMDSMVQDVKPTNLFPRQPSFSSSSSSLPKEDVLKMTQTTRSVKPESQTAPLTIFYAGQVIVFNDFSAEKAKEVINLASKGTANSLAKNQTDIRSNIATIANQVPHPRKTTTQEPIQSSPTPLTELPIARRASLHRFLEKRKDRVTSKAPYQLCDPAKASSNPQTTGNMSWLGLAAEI
Format: binding

SMILES | support of COI1-JAZ1 co-receptor ligand binding activity
O=P(O)(O)OC1C(OP(=O)(O)O)C(OP(=O)(O)O)C(OP(=O)(O)O)C(OP(=O)(O)O)C1OP(=O)(O)O (stereo not drawn) [InsP6, inositol hexakisphosphate] | not favorable for activity
O=P(O)(O)O[C@@H]1[C@H](O)[C@H](O)[C@@H](OP(=O)(O)O)[C@H](OP(=O)(O)O)[C@H]1O [inositol (1,4,5) triphosphate] | does not
O=P(O)(O)O[C@H]1[C@H](OP(=O)(O)O)[C@@H](OP(=O)(O)O)[C@@H](O)[C@@H](O)[C@@H]1OP(=O)(O)O [inositol (1,4,5,6) tetrakisphosphate] | supports the activity; also recorded: support high affinity hormone binding
